Assay results from PMC6843571, “Effects of Single Nucleotide Polymorphism Ala270Ser (rs316019) on the Function and Regulation of hOCT2” (Biomolecules, 2019).
Residue numbers refer to the chain shown, from its start. “And” between values parts separate entries of the source, which are not always exact repeats. Equal values may be shown once.

What was measured:
[1] = target: T1, hOCT2 WT (Homo sapiens, UniProt O15244); assay: ASP+ uptake saturation experiments (microfluorimetry), hOCT2 WT; type: cell-based; conditions: hOCT2 WT in stably transfected HEK cells; specific uptake (minus uptake with 1 mM TPA^+); 37 °C, pH 7.4
T1 construct: expressed in transfected cells
T1 sequence (O15244 1-555 S270A): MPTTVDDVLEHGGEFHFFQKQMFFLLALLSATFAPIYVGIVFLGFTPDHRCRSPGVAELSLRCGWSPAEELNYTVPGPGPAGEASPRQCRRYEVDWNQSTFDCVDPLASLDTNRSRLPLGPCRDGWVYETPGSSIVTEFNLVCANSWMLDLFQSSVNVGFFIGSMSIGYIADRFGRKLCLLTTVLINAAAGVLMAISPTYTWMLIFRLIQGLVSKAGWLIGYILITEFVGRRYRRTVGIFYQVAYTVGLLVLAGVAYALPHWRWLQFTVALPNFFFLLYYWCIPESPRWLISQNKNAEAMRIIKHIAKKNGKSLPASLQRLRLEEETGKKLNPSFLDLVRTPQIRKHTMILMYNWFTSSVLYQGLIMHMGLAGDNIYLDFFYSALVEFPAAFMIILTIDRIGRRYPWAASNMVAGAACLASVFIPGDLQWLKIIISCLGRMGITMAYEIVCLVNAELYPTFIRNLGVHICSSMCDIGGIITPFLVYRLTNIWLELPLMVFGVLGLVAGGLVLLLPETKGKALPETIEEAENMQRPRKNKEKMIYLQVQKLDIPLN
Description: (§1) Measurement of hOCT2 function in HEK293 cells was performed using microfluorimetry with the fluorescent organic cation 4-(4-(dimethylamino)styryl)-N-methylpyridinium (ASP^+) as the substrate, as described previously in detail. As shown in previous work, this method allows a real-time measurement of the transporter function. The initial rate of ASP^+ uptake was calculated, as it reflects the activity of the transporter.
(§2) Briefly, ASP^+ cellular fluorescence was measured in a microtiterplate reader (Tecan infinite m200; Tecan, Crailsheim, Germany) at 37 °C using an excitation wavelength of 450 nm and an emission of 590 nm. Before fluorescence measurements, cells confluently grown in 96-well plates were washed in ringer-like solution (in mmol/L: 145 NaCl, 1.6 K2HPO4, 0.4 KH2PO4, 5 D-glucose, 1 MgCl2, 1.3 calcium gluconate, pH 7.4). Cell fluorescence was measured before and after ASP^+ addition to the cells. The kinetic characteristics of hOCT WT and hOCT2 Ala270Ser were investigated performing saturation experiments with increasing ASP^+ concentrations. Non-hOCT2-mediated ASP^+ uptake was evaluated in the presence of a huge amount (1 mM) of tetrapentylammonium (TPA^+) and subtracted from the total ASP^+ uptake in order to evaluate the ASP^+ uptake mediated specifically by hOCT2, as shown already in References. […]

[2] = target: T2, hOCT2 WT (Homo sapiens, UniProt O15244, S270A); assay: as above; type: cell-based; conditions: hOCT2 WT in stably transfected HEK cells; specific uptake
T2 construct: expressed in transfected cells
T2 sequence (O15244 1-555 S270A): T1 sequence (O15244 1-555 S270A)
Description: as §1, §2

[3] = target: T3, hOCT2 Ala270Ser (Homo sapiens, UniProt O15244); assay: ASP+ uptake saturation experiments (microfluorimetry), hOCT2 Ala270Ser; type: cell-based; conditions: hOCT2 Ala270Ser in stably transfected HEK cells
T3 construct: expressed in transfected cells
T3 sequence (O15244 1-555): T1 sequence (O15244 1-555 S270A) with A270S
Description: as §1, §2

[4] = target: T1, hOCT2 WT; assay: Inhibition of ASP+ uptake by competitors, hOCT2 WT; type: cell-based; conditions: 1 µM ASP^+; HEK293 hOCT2 WT cells; 37 °C, pH 7.4; read-out: hOCT2 WT IC50 (apparent affinity, inhibition of ASP^+ uptake)
[5] = target: T2, hOCT2 WT; assay: Inhibition of ASP+ uptake by competitors, hOCT2 WT; type: cell-based; conditions: 1 µM ASP^+, hOCT2 WT cells; for hOCT2 WT logIC50 ± SEM: log of IC50, in parenthesis in Table 1
[6] = target: T3, hOCT2 Ala270Ser; assay: Inhibition of ASP+ uptake by competitors, hOCT2 Ala270Ser; type: cell-based; conditions: 1 µM ASP^+; for IC50: HEK293 hOCT2 Ala270Ser cells, 37 °C, pH 7.4, read-out: hOCT2 Ala270Ser IC50 (apparent affinity, inhibition of ASP^+ uptake); for hOCT2 Ala270Ser logIC50 ± SEM: log of IC50, in parenthesis in Table 1
[7] = system: hOCT2 WT cells; assay: Cytoviability (MTT) assay, hOCT2 WT cells; type: cell-based, human
Description: (§3) The cytotoxicity of cisplatin was evaluated using a modified 3-(4,5-dimethylthiazol-2-yl)-2,5-diphenyltetrazoliumbromid (MTT) assay. The HEK293 cells grown for 24 hours in 96-well plates were incubated for 10 min at 37 °C with different concentrations of cisplatin (Calbiochem, Merck Chemicals GmbH, Darmstadt, Germany) dissolved in a ringer-like solution. The cisplatin solution was then removed, and the cells were grown in fresh medium for 48 hours. Afterwards, the cells were incubated with 10 µL MTT (Sigma, Steinheim, Germany) solution containing 5 mg/mL of the dye for three hours at 37 °C. Then, MTT was removed, and the cells were lysed with a solution containing 10% (w/v) sodium dodecyl sulfate and 40% (v/v) dimethylformamide. After 90 min, absorption was measured at 570 nm in a multiplate reader (Tecan infinite m200, Tecan, Tecan Group Ltd., Crailsheim, Germany).

[8] = system: hOCT2 Ala270Ser cells; assay: Cytoviability (MTT) assay, hOCT2 Ala270Ser cells; type: cell-based, human
Description: as §3

[9] = target: T1, hOCT2 WT; assay: Cellular platinum accumulation by ICP-MS, hOCT2 WT cells; type: cell-based; conditions: 2 min incubation with 100 µM cisplatin, mean ± SEM
Description: (§4) Intracellular cisplatin concentrations were determined using inductively coupled plasma mass spectrometry (ICP-MS), which provides information on the elemental concentration in samples [27, 28], as described before. To do this, cells were grown for five days on 6-well plates and incubated at 37 °C for 2 min with 2 mL of 100 µM cisplatin freshly prepared in a ringer-like solution. After incubation, cells were rapidly washed with ice-cold PBS and then hypotonically lysed using distilled water and sonication for 15 min. For the ICP-MS analysis, 100 µL of cell lysates together with 100 µL of rhodium standard (Rh 1000 µg/mL, Scpscience, Marktoberdorf, Germany) were mixed with 9.8 mL 2% HNO3. Standard platinum for ICP (Merck) was diluted in 2% HNO3, and linear regression was performed (r² = 0.998 and 0.999). Samples were analyzed using ICP-MS iCap QC, autosampler AccelaAS (Thermo Fisher Scientific, Bremen, Germany) and Qtegra ISDS software (Thermo Fisher Scientific). The protein content of lysed cells was determined by absorption measurements using PicoDrop Pico 1000 (PicoDrop, Saffron Walden, UK).

[10] = target: T3, hOCT2 Ala270Ser; assay: Cellular platinum accumulation by ICP-MS, hOCT2 Ala270Ser cells; type: cell-based; conditions: 2 min incubation with 100 µM cisplatin, mean ± SEM
Description: as §4

[11] = system: hOCT2 WT-mediated ASP^+ uptake; assay: Rapid regulation of ASP+ uptake, hOCT2 WT cells; type: cell-based, human; conditions: 1 µM ASP^+, compared to control
Description: (§5) Moreover, since it is known that the activity of hOCT2 can be regulated by several kinases, the effect of the Ala270Ser substitution on regulation by calmodulin and p56^lck tyrosine kinase of hOCT2 was investigated. The regulation by these two pathways is conserved along all the OCTs. To study the rapid regulation of hOCT2, cells were incubated for 10 min at 37 °C with calmidazolium (5 µM), a potent specific inhibitor of calmodulin [24], with aminogenistein (10 µM), a specific inhibitor of p56^lck tyrosine kinase, or with ringer-like solution as a control. Regulators were dissolved in ethanol (calmidazolium) or DMSO (aminogenistein) at a concentration that had no impact on ASP^+ transport. After incubation, fluorescence measurements were carried out with 1 µM ASP^+.

[12] = system: hOCT2 Ala270Ser-mediated ASP^+ uptake; assay: Rapid regulation of ASP+ uptake, hOCT2 Ala270Ser cells; type: cell-based, human; conditions: 1 µM ASP^+, compared to control
Description: as §5

[13] = 10 min incubation, then 48 hours in fresh medium
[14] = read-out: EC50 (concentration giving 50% of the toxic effect), MTT assay, 10 min incubation, then 48 hours in fresh medium
[15] = 10 min incubation with 10 µM aminogenistein
[16] = 10 min incubation with 5 µM calmidazolium

| IC50 [4] | hOCT2 WT logIC50 ± SEM [5] | IC50 [6] | hOCT2 Ala270Ser logIC50 ± SEM ([6]; hOCT2 Ala270Ser cells) | SMILES | further results |
| --- | --- | --- | --- | --- | --- |
| 4600 µM | −2.33 ± 0.06 | 4000 µM | −2.40 ± 0.07 | NCCc1c[nH]cn1 [Histamine, histamine] |  |
|  | −2.71 ± 0.06 |  |  | CN(C)CCCN1c2ccccc2CCc2ccccc21 [Imipramine, imipramine] |  |
| 900 µM and 868 µM | −3.06 ± 0.05 | 800 µM and 848 µM | −3.07 ± 0.05 | CN(C)C(=N)N=C(N)N [Metformin, metformin] |  |
| 87 µM | −4.06 ± 0.05 | 106 µM | −3.98 ± 0.06 | Cc1ncc(C[n+]2csc(CCO)c2C)c(N)n1 [Thiamin, thiamine] |  |
| ~5400 µM | −2.27 ± 0.28 | ~2400 µM | −2.61 ± 0.28 | N[C@@H](Cc1c[nH]c2ccccc12)C(=O)O [Tryptophan, tryptophan] | Inhibition of ASP^+ uptake (in words) [5]: inhibit a small part of the ASP^+ uptake only at very high concentrations; Inhibition of ASP^+ uptake (in words) ([6]; hOCT2 Ala270Ser cells): inhibit a small part of the ASP^+ uptake only at very high concentrations |

Further lines, the compound ahead of its results:

| SMILES | IC50 [4] | hOCT2 WT logIC50 ± SEM [5] | IC50 [6] | hOCT2 Ala270Ser logIC50 ± SEM ([6]; hOCT2 Ala270Ser cells) | further results |
| --- | --- | --- | --- | --- | --- |
| CN(C)c1ccc(C=Cc2cc[n+](C)cc2)cc1 [ASP^+, 4-(4-(dimethylamino)styryl)-N-methylpyridinium] |  |  |  |  | Km [1]: 4 ± 1 µM; Vmax of ASP^+ uptake [2]: 516 ± 23 arbitrary units/µg protein s^2; Vmax of ASP^+ uptake ([3]; specific uptake): 484 ± 50 arbitrary units/µg protein s^2; Km ([3]; specific uptake (minus uptake with 1 mM TPA^+), 37 °C, pH 7.4): 4.9 ± 1.6 µM |
| CN/C(=N/CCSCc1nc[nH]c1C)NC#N [Cimetidine, cimetidine] | 23 µM | −4.64 ± 0.12 | 40 µM | −4.40 ± 0.19 |  |
| N.N.[Cl][Pt][Cl] [Cisplatin, cisplatin] | 16 µM | −4.80 ± 0.10 | 9 µM | −5.04 ± 0.11 | logEC50 ± SEM, MTT assay [7, 13]: −4.89 ± 0.11; EC50 [7, 14]: 13 µM; logEC50 ± SEM, MTT assay [8, 13]: −4.48 ± 0.05; EC50 [8, 14]: 33 µM; Cellular platinum concentration [9]: 264 ± 10 µg Pt/g protein; Cellular platinum concentration [10]: 221 ± 10 µg Pt/g protein |
| CN1CC(=O)NC1=N [Creatinine, creatinine] | 18600 µM | −1.73 ± 0.04 | 9800 µM | −2.01 ± 0.06 |  |
| Nc1ccc(-c2cc(=O)c3cc(O)ccc3o2)cc1 [aminogenistein] |  |  |  |  | Effect on hOCT2 WT-mediated ASP^+ uptake (inhibition of p56^lck tyrosine kinase) [11, 15]: strong significant inhibition; Effect on hOCT2 Ala270Ser-mediated ASP^+ uptake (inhibition of p56^lck tyrosine kinase) [12, 15]: strong significant inhibition |
| Clc1ccc(C(c2ccc(Cl)cc2)n2cc[n+](CC(OCc3ccc(Cl)cc3Cl)c3ccc(Cl)cc3Cl)c2)cc1 (stereo not drawn) [calmidazolium] |  |  |  |  | Effect on hOCT2 WT-mediated ASP^+ uptake (inhibition of calmodulin) [11, 16]: strong significant inhibition; Effect on hOCT2 Ala270Ser-mediated ASP^+ uptake (inhibition of calmodulin) [12, 16]: strong significant inhibition |
